Data as given in publication PMC6271559, “Synthesis and Evaluation of 2,4-Disubstituted Quinazoline Derivatives with Potent Anti-Angiogenesis Activities” (Molecules, 2014).
Where two headings read alike, the source gives them in different places.

How the values were obtained:
[1] = tested on: PC-3 (human prostatic carcinoma) cells; experiment: MTT cytotoxicity assay, PC-3; type: cell-based; conditions: Prostatic carcinoma cell, 48 h, mean of three independent assays
Excerpt: (§1) In the early 80s, scientists proposed anti-angiogenesis as a potential target in cancer therapy. Much research in the past 30 years has targeted tumor angiogenesis as a means of inhibiting the process of tumor-caused blood vessel formation. Endothelial cells, which come from the inner lining of blood vessels, makes up a fundamental part of new blood vessels as well as pre-existing ones. A complete angiogenesis process includes the proliferation, migration, and differentiation of endothelial cells, so a great deal of angiogenesis inhibitors discovered to date target endothelial cells. We thus employed a cell proliferation assay to evaluate the cytotoxicity of quinazoline derivatives against both normal (HUVEC) and tumor cell lines (CNE-2, PC-3, and SMMC-7721 cell lines) so we can screen some molecules that have cytotoxicity against tumor cells but low cytotoxicity against HUVECs. Meanwhile, an appropriate concentration range of these compounds could be determined to further study their inhibitive effects against the proliferation, migration, and differentiation of HUVECs. The cytotoxic activities of quinazoline derivatives against human tumor cell lines CNE-2 (human nasopharyngeal cancer), PC-3 (human prostatic carcinoma), SMMC-7721 (human liver cancer) and Human Umbilical Vein Endothelial Cells (HUVECs) were determined by using the MTT cytotoxicity assay.
(§2) HUVEC, CNE-2, PC-3, and 7721 cell lines were seeded on 96-well plates at a concentration of 5,000 cells per well and exposed to various concentrations of quinazoline derivatives. After 48 h of treatment at 37 °C in a humidified atmosphere of 5% CO2, 5 mg/mL MTT solution (10 μL) was added to each well and further incubated for 4 h. Each well was then added dimethyl sulfoxide (DMSO, 100 μL), and the optical density (OD) was recorded at 490 nm. All measurements were done in triplicate, and the IC50 values were derived from the mean OD values of the triplicate tests versus drug concentration curves.

[2] = tested on: HUVEC adhesion to collagen; experiment: HUVEC adhesion assay on type I collagen; type: cell-based, human; conditions: Homo sapiens, HUVEC, adhesion of HUVEC on collagen, 37 °C
Excerpt: A perfect angiogenesis inhibitor must be show lower toxicity toward HUVECs, while showing high inhibitive capability towards the proliferation, migration, and differentiation of HUVECs. To assess the inhibitory effects of 2,4-disubstituted quinazoline derivatives, three assays were used: HUVEC adhesion assay, HUVEC migration assay and CAM assay. Firstly, to test the inhibitory effects of quinazoline derivatives on the attachment of endothelial cells to type I collagen, cell adhesion assays were carried out.
Cell adhesion assay was carried out by a reported method with slight modification. Wells of a 96-well plate were coated at room temperature overnight with rat trail tendon collagen type I (2 μg) in PBS in a final volume of 100 μL. The wells were washed three times with PBS ([…]) and then blocked with 0.2% bovine serum albumin (BSA) in PBS ([…]) for 2 h at 37 °C in a cell culture incubator. The wells were then washed three times with PBS ([…]). HUEVCs were detached from the dish, resuspended in DMEM, and added (50 μL, 10^4 cells/mL) to each well followed by the related compounds (50 μL) at various concentrations. The plates were incubated for 1 h or 3 h at 37 °C and then washed three times with PBS (100 μL). The attached cells were fixed and stained with 0.2 % crystal violet in 20% methanol for 10 min, then washed three times with PBS ([…]). The cells were solubilized by 2% SDS and the OD was measured at 570 nm. Attachment was determined by both 1 and 3 h as described above. Each compound was tested in triplicate and each experiment was repeated three times.

HUVEC migration = HUVEC migration (wounding) assay; type: cell-based, human; conditions: 15 μM and 30 μM, 24 h
Description: Compounds were tested at concentrations of both 15 μM and 30 μM, and all seven compounds tested in this assay could inhibit HUVEC migration.
The HUVEC cell line was seeded on a pre-treated 48-well culture plate at a concentration of 2 × 10^4 cells per well in a volume of 200 μL, and a portion of the cell monolayer was scraped off with a sterile disposable rubber policeman. After the DMEM medium was removed, the cells in each well were then washed three times with PBS (phosphate-buffer saline), and fresh medium was added to each well. The wells were then tested after incubation for 24 h with or without quinazoline derivatives at various concentrations. Two random pictures were taken for each wound using a microscope. The area of the migrations was measured using Photoshop CS3. All measurements were done in triplicate, and the experiments were done at least three times.

[3] = tested on: chick embryo chorioallantoic membrane (CAM); experiment: CAM angiogenesis assay; type: in vivo; conditions: 30 μg/10 μL on filter disc, 48 h
Description: CAMs treated with 0.9% NaCl solution (negative control) were surrounded by all antoic vessels as newly-formed capillaries converging radially toward the sponge in a “spoked wheel” pattern (number of vessels 24 ± 3).
The in vivo CAM angiogenesis model as initially described by Folkman and then modified by Maragoudakis was used. Fertilized chicken eggs were used after incubating them for 8 days. A 1 cm × 1 cm window was made in the shell to create a pocket to expose the CAM. A filter disc with 0.9% NaCl solution or 30 μg/10 μL of compounds was then placed upon the CAM from 10 eggs per treatment and 48 h later, the CAMs were fixed with 4% paraformaldehyde and the vessel number from three random fields around the filter disc were pictured using a microscope.

[4] = tested on: SMMC-7721 (human liver cancer) cells; experiment: MTT cytotoxicity assay, SMMC-7721; type: cell-based; conditions: 48 h, mean of three independent assays
Excerpt: as §1, §2

[5] = tested on: CNE-2 (human nasopharyngeal cancer) cells; experiment: MTT cytotoxicity assay, CNE-2; type: cell-based; conditions: 48 h, mean of three independent assays
Excerpt: as §1, §2

[6] = MTT cytotoxicity assay, HUVEC; type: cell-based; conditions: human, HUVEC (human umbilical vein endothelial cells), mean of three independent assays
Excerpt: as §1, §2

CN(C)CCCNc1nc(-c2ccccc2NC(=O)CCN2CCN(C)CC2)nc2ccccc12 [Compound 11d, N-(2-(4-(3-(Dimethylamino)propylamino)quinazolin-2-yl)phenyl)-3-(4-methylpiperazin-1-yl)propane-mide]
IC50 [1]: 9.8 ± 0.3 µM
inhibition at 15 µM ([2]; 1 h, 1 h, read-out: 1 h Inhibition Rate % Dose 15 μM): 47.4 ± 0.1%
inhibition at 30 µM ([2]; 1 h, 1 h, read-out: 1 h Inhibition Rate % Dose 30 μM): 65.8 ± 0.2%
inhibition at 15 µM ([2]; 3 h, 3 h, read-out: 3 h Inhibition Rate % Dose 15 μM): 53.3 ± 0.3%
inhibition at 30 µM ([2]; 3 h, 3 h, read-out: 3 h Inhibition Rate % Dose 30 μM): 71.2 ± 0.1%
melting point: 167 to 168 °C
inhibition of HUVEC migration (HUVEC migration): best inhibitory activity
inhibition of angiogenesis in CAM assay [3]: excellent inhibition of angiogenesis
IC50 [4]: 10.9 ± 0.2 µM
IC50 [5]: 9.3 ± 0.2 µM
IC50 at 48 h [6]: 47.2 ± 0.2 µM
